According to patent US20220091133A1, “METHODS AND ASSAYS FOR IMMUNE PHENOTYPING” (Washington University, priority 2020, published 2022):
“And” between values parts separate entries of the source, which are not always exact repeats. Equal values may be shown once. Starred links: 1 amine or outer side, 2 acyl side, 3 side chain; linkers in the order of their positions; H or OH if unused. Positions of bridges follow the written chain, without caps; N, C: chain ends. Non-standard residues stand in square brackets, D forms with d. Residues, ends and D or L forms follow the SMILES beside them. *: point of attachment. hTyr(3S-OH,4S-OH,3'-OSO3H) = N[C@H](C(=O)O)[C@H](O)[C@@H](O)c1ccc(O)c(OS(=O)(=O)O)c1; Orn(4R-OH,5R-OH) = O=C([C@H](C[C@@H](O)[C@@H](O)N[*:3])N[*:1])[*:2]; Pro(3S-OH,4S-Me) = C[C@H]1CN[C@H](C(=O)O)[C@H]1O; X1 = CCCCCOc1ccc(-c2cc(-c3ccc(C(=O)*)cc3)no2)cc1; Gln(3R-OH) = NC(=O)C[C@@H](O)[C@H](N)C(=O)O; Hyp = O=C(O)[C@@H]1C[C@@H](O)CN1

Tests used:
[1] = test system: Trichosporon asahii and Saksenaea species; assay: Tissue, wound, blood and bone cultures of the fungal wound sepsis patient; assay type: in vivo, human; settings: posaconazole, amphotericin B and micafungin together, before IL-7
Excerpt: They were aggressively treated with daily or alternating-day operative debridement, broad-spectrum parenteral and topical antibacterial and antifungal therapy. Antimicrobial therapy included ceftazidime, metronidazole, trimethoprim-sulfamethoxazole, micafungin, amphotericin B, and posaconazole (FIG. 29), as well as VERAFLO vac instillation of antimicrobials into the wound bed. The patient's polymicrobial soft tissue infection continued to advance and was accompanied by multisystem organ failure and shock. Over a 4-week period, they required debridement of >3000 cm^2 of skin, subcutaneous tissue, and muscle involving the entire perineum, bilateral thighs, buttocks, and circumferential abdominal wall (FIG. 28B).
Tissue histology also became negative for fungus at approximately the same time as tissue cultures (FIG. 28E).

[2] = test system: Saksenaea isolate; assay: CLSI broth dilution antifungal susceptibility testing; settings: Saksenaea isolate from patient wound, CLSI broth dilution reference method
[3] = test system: peripheral blood mononuclear cells (T cell IFN-γ production); assay type: cell-based, human
[4] = test system: mucormycosis; settings: nivolumab (anti-PD-1) and IFN-γ together, Belgian bomb blast victim, reference 5; cited from earlier work

## C[C@@H]1[C@H](O)[C@@H](C)/C=C/C=C/C=C/C=C/C=C/C=C/C=C/[C@H](O[C@@H]2O[C@H](C)[C@@H](O)[C@H](N)[C@@H]2O)C[C@@H]2O[C@](O)(C[C@@H](O)C[C@@H](O)[C@H](O)CC[C@@H](O)C[C@@H](O)CC(=O)O[C@H]1C)C[C@H](O)[C@H]2C(=O)O [amphotericin B]
[1]
  wound cultures for Trichosporon asahii and Saksenaea species despite triple antifungal therapy: persistently positive
[2]
  Drug sensitivities: < 0.03 µg/mL

## C[C@@H]1C[C@H]2[C@@H]3CCC4=CC(=O)C=C[C@]4(C)[C@@]3(F)[C@@H](O)C[C@]2(C)[C@@]1(O)C(=O)COP(=O)(O)O [dexamethasone, dexamethasone phosphate]
[3]
  decrease in IFN-γ production (ELISpot total well intensity): 61% and 58%
  reduction in the number of IFN-γ secreting cells: 30% and 49%

## C[C@@H](c1nc(-c2ccc(C#N)cc2)cs1)[C@](O)(Cn1cncn1)c1cc(F)ccc1F [isavuconazole]
[2]
  Drug sensitivities: 1 µg/mL

## CCCCCOc1ccc(-c2cc(-c3ccc(C(=O)N[C@H]4C[C@@H](O)[C@@H](O)NC(=O)[C@@H]5[C@@H](O)[C@@H](C)CN5C(=O)[C@H]([C@H](O)CC(N)=O)NC(=O)[C@H]([C@H](O)[C@@H](O)c5ccc(O)c(OS(=O)(=O)O)c5)NC(=O)[C@@H]5C[C@@H](O)CN5C(=O)[C@H]([C@@H](C)O)NC4=O)cc3)no2)cc1 [micafungin] (X1-[Orn(4R-OH,5R-OH)]T[Hyp][hTyr(3S-OH,4S-OH,3'-OSO3H)][Gln(3R-OH)][Pro(3S-OH,4S-Me)]; lactam 1-C)
[1]
  wound cultures for Trichosporon asahii and Saksenaea species despite triple antifungal therapy: persistently positive

## CC[C@@H]([C@H](C)O)n1ncn(-c2ccc(N3CCN(c4ccc(OC[C@@H]5CO[C@@](Cn6cncn6)(c6ccc(F)cc6F)C5)cc4)CC3)cc2)c1=O [posaconazole]
[1]
  wound cultures for Trichosporon asahii and Saksenaea species despite triple antifungal therapy: persistently positive
[2]
  Drug sensitivities: 0.25 µg/mL

## IFN-γ: interferon-γ given as immune-adjuvant therapy
[4]
  outcome of immune-adjuvant therapy in refractory mucormycosis: rapid clinical improvement, enhanced immune phenotypic markers, and fungal elimination

## nivolumab [reference compound]
[4]
  outcome of immune-adjuvant therapy in refractory mucormycosis: rapid clinical improvement, enhanced immune phenotypic markers, and fungal elimination
